The values below come from US9732111B2, “2′-alkynyl substituted nucleoside derivatives and methods of use thereof for the treatment of viral diseases” (Merck Sharp & Dohme Corp., priority 2012, dated 2017).

One may read the pKi as the Ki on a negative log10 scale, so that one unit is a factor of ten. Low values mean a large Ki, high ones a small Ki. What is called pEC50 is the negative decadic logarithm of the EC50, by convention in mol/L.

pEC50, pKi: −log10 of the molar value. Like-named read-outs stand apart in the source and are kept apart here.

Series [1] addresses T1, HCV NS5B RNA-dependent RNA polymerase (1b-BKΔ55) (Hepatitis C virus genotype 1b, UniProt P26663).
T1 construct: 5 nM NS5B (1b-BKΔ55) enzyme
As to the kind of experiment: Inhibition of HCV NS5B polymerase by nucleoside triphosphate analogs (radiolabeled nucleotide incorporation assay). The series is classed as biochemical. The procedure:
To measure inhibition of the enzymatic activity of the HCV NS5B RNA-dependent RNA polymerase by the nucleoside triphosphate compounds of the present invention, a radiolabeled nucleotide incorporation assay was used. This assay is a modified version of the assay described in International Publication No. WO2002/057287. Briefly, 50 μL reactions containing 20 mM HEPES (pH 7.3); 7.5 mM DTT; 20 units/mL RNasIN; 1 μM each of ATP, GTP, UTP and CTP; 20 μCi/mL [^33P]-CTP; 10 mM MgCl; 60 mM NaCl; 100 μg/mL BSA; 0.021 μM DCoH heteropolymer RNA template; and 5 nM NS5B (1b-BKΔ55) enzyme are incubated at room temperature for 1 hour. The assay is then terminated by the addition of 500 mM EDTA (50 μL). The reaction mixture is transferred to a Millipore DE81 filter plate and the incorporation of labeled CTP is determined using Packard TopCount. Compound IC50 values can then be calculated from experiments with 10 serial 3-fold dilutions of the inhibitor in duplicate. The intrinsic potency (Ki) of an NTP inhibitor is derived from its NS5B IC50 using the Cheng-Prusoff equation for a competitive inhibitor, as described in Cheng et al., Biochem Pharmacol 22:3099-3108 (1973): Ki=IC50/(1+[S]/Km), where [S]=1 μM, and Km is the concentration of cognate NTP yielding half-maximal enzyme activity in the assay absent exogenous inhibitors.
Data was obtained using this method for the NTP analogs of selected compounds below of the present invention, and is set forth below.

The test system of a further series is replicon cells (1b-Con1). As to the kind of experiment: Cytotoxicity in replicon cells (MTS assay). Conditions: CC50, MTS assay, three days post dosing.
In series [2] the test system is HCV replicon cells (1b-Con1). As to the kind of experiment: Replicon activity assay (replicon RNA level by real-time RT-PCR). Conditions: Hepatitis C virus, 72 h, read-out: Replicon (1b) EC50. The series is classed as cell-based.

T1 sequence (P26663 2420-2955, stated change not applied): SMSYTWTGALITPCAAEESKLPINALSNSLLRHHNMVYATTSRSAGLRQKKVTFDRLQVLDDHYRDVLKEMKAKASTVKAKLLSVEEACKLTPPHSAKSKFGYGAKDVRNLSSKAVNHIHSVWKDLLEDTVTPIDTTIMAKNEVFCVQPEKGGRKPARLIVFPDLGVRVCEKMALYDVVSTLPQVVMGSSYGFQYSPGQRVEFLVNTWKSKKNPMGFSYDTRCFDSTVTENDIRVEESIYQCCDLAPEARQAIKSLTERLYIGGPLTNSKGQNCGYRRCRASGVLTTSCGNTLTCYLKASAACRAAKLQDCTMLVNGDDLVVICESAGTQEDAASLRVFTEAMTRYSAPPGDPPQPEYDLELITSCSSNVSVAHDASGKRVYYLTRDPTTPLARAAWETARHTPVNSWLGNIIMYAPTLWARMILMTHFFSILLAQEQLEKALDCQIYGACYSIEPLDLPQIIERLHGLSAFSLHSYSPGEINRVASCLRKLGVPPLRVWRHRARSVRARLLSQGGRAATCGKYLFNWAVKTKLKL

For `C#C[C@@]1(N)[C@H](O)[C@@H](COP(=O)(O)OP(=O)(O)OP(=O)(O)O)O[C@H]1n1ccc(=O)[nH]c1=O`, the negative-log Ki (pKi) in series [1] was 5.92.
In turn, `CC#C[C@@]1(F)[C@H](O)[C@@H](COP(=O)(N[C@@H](C)C(=O)OC(C)C)Oc2ccccc2)O[C@H]1n1ccc(=O)[nH]c1=O` (stereo partly shown) returned a Cytotoxicity in the series with replicon cells (1b-Con1) of 74.4 µM. Besides, the negative-log EC50 (pEC50) in series [2] was 4.34.
For `CC(C)OC(=O)[C@H](C)NP(=O)(OC[C@H]1O[C@@H](n2ccc(=O)[nH]c2=O)[C@@](O)(C#CC(F)(F)F)[C@@H]1O)Oc1ccccc1` (stereo partly shown), in the series on replicon cells (1b-Con1), the Cytotoxicity stood at 40.7 µM. In addition, the negative-log EC50 (pEC50) in series [2] was 4.60.
For the compound `CC#C[C@@]1(O)[C@H](O)[C@@H](COP(=O)(O)OP(=O)(O)OP(=O)(O)O)O[C@H]1n1ccc(=O)[nH]c1=O`, the pKi in series [1] is 7.24.
In the series on replicon cells (1b-Con1), `C#C[C@@]1(O)[C@@H]2OP(=O)(OC(C)C)OC[C@H]2O[C@H]1n1ccc(=O)[nH]c1=O` (single isomer, unassigned) came in with a Cytotoxicity of over 100 µM. Further, the negative-log EC50 (pEC50) in series [2] (1b-Con1 replicon cells, three days post-dosing) was 4.68.
The compound `CC#C[C@]1(O)[C@H](O)[C@@H](COP(=O)(N[C@@H](C)C(=O)OC(C)C)Oc2ccccc2)O[C@H]1n1ccc(=O)[nH]c1=O` (single isomer, unassigned) had a Cytotoxicity in the series with replicon cells (1b-Con1) of over 100 µM. For the same compound, the pEC50 in series [2] is 6.03.
In turn, `C#C[C@@]1(O)[C@H](O)[C@@H](COP(=O)(O)OP(=O)(O)OP(=O)(O)O)O[C@H]1n1ccc(=O)[nH]c1=O` gave a pKi in series [1] of 7.44.
Compound `C#C[C@]1(O)[C@H](O)[C@@H](COP(=O)(O)OP(=O)(O)OP(=O)(O)O)O[C@H]1n1ccc(=O)[nH]c1=O` gave a negative-log Ki (pKi) in series [1] of about 4.72.
For `CC#C[C@]1(O)[C@H](O)[C@@H](COP(=O)(O)OP(=O)(O)OP(=O)(O)O)O[C@H]1n1ccc(=O)[nH]c1=O`, the pKi in series [1] was about 4.92.
`C#C[C@@]1(O)[C@H](O)[C@@H](COP(=O)(N[C@@H](C)C(=O)OC(C)C)Oc2ccccc2)O[C@H]1n1ccc(=O)[nH]c1=O` (single isomer, unassigned): in the series on replicon cells (1b-Con1), the Cytotoxicity is over 100 µM. For the same compound, the negative logarithm of the EC50 (pEC50) in series [2] was 7.05.
The matching figures for `C#C[C@@]1(O)[C@H](OC(=O)C(C)C)[C@@H](COP(=O)(N[C@@H](C)C(=O)OC(C)C)Oc2ccccc2)O[C@H]1n1ccc(=O)[nH]c1=O` (single isomer, unassigned): over 100 µM and 7.00.
The matching figures for `CC(C)OC(=O)[C@H](C)NP(=O)(OC[C@H]1O[C@@H](n2ccc(=O)[nH]c2=O)[C@@](O)(C#CC2CC2)[C@@H]1O)Oc1ccccc1` (stereo partly shown): 14.2 µM and 5.96.
